Measurements: US20240251790A1 (priority 2021, published 2024)
Where two headings read alike, the source gives them in different places.

Legend:
Settings in all cases: 500 ppm PAA
[1] = system: yeast and mold (YM); type: cell-based
[2] = system: barley; assay: Germination of treated barley kernels (percentage of living kernels); type: in vivo
Protocol: The grains treated with PAA as described in Example 4 were further tested for germination. After the treatment, the PAA solution was decanted and kernels were immediately transferred into Petri dishes and placed between two wet paper towels for germination tests. The treated kernels were not washed with water. The germination continued in a water bath at room temperature for 2 days. Germination was evaluated by the percentage of living kernels in a sample of barley.

[3] = system: total microbial count (APC); type: cell-based
[4] = germinated barley treated before kilning, pH = 3, 30 s, testing after germination, * = complete kill
[5] = germinated barley treated before kilning, pH = 3, 30 s, testing after kilning, * = complete kill
[6] = germinated barley treated before kilning, pH = 9, 30 s, testing after germination
[7] = germinated barley treated before kilning, pH = 9, 30 s, testing after kilning, * = complete kill
[8] = germinated barley, pH = 3.1, 30 seconds
[9] = germinated barley, pH = 9.0, 30 seconds
[10] = steeped barley, pH = 3.1 (unadjusted), 30 seconds, 20° C.
[11] = steeped barley, pH = 9.0, 30 seconds, 20° C.
[12] = steeped barley, pH = 10.0, 30 s
[13] = steeped barley, unadjusted (pH=3.1), 5 s
[14] = steeped barley, unadjusted (pH=3.1), 30 s
[15] = germinated barley treated before kilning, pH = 3, 30 s, testing after germination
[16] = germinated barley treated before kilning, pH = 3, 30 s, testing after kilning
[17] = germinated barley treated before kilning, pH = 9, 30 s, testing after kilning

`CC(=O)OO` [PAA, peracetic acid] was tested, and the “YM Log10” value [1, 4] was 0.00* Log10, the “YM Log10 Reduction” value [1, 4] was 4.67* Log10 and the “YM Log10” value [1, 5] was 0.00* Log10. The “YM Log10 Reduction” value [1, 5] was 2.00* Log10, the “YM Log10” value [1, 6] was 2.92 Log10 and the “YM Log10 Reduction” value [1, 6] was 1.75 Log10. The “YM Log10” value [1, 7] was 0.00* Log10, the “YM Log10 Reduction” value [1, 7] was 2.00* Log10 and the “YM Log10 (CFU/10 g barley grains)” value [1, 8] was 3.60 Log10. The “YM Log10 Reduction” value [1, 8] was 1.86 Log10, the “YM Log10 (CFU/10 g barley grains)” value [1, 9] was 3.83 Log10 and the “YM Log10 Reduction” value [1, 9] was 1.63 Log10. For the same compound, the “YM Log10 (CFU/10 g barley grains)” value [1, 10] was 3.84 Log10, the “YM Log10 Reduction” value [1, 10] was 1.75 Log10 and the “YM Log10” value ([1]; steeped barley, pH = 6.5, 5 s) was 1.30 Log10. For the same compound, the “YM Log10 Reduction” value ([1]; steeped barley, pH = 6.5, 5 s) was 2.46 Log10, the “YM Log10” value ([1]; steeped barley, pH = 6.5, 30 s) was 0.00 Log10 and the “YM Log10 Reduction” value ([1]; steeped barley, pH = 6.5, 30 s) was 3.76 Log10. For the same compound, the “YM Log10” value ([1]; steeped barley, pH = 9, 5 s) was 3.86 Log10, the “YM Log10 Reduction” value ([1]; steeped barley, pH = 9, 5 s) was 0.62 Log10 and the “YM Log10” value ([1]; steeped barley, pH = 9, 30 s) was 2.60 Log10. For the same compound, the “YM Log10 Reduction” value ([1]; steeped barley, pH = 9, 30 s) was 1.88 Log10, the “YM Log10 (CFU/10 g barley grains)” value [1, 11] was 4.06 Log10 and the “YM Log10 Reduction” value [1, 11] was 1.53 Log10. The “YM Log10” value ([1]; steeped barley, pH = 9, 10 min) was 2.80 Log10, the “YM Log10 Reduction” value ([1]; steeped barley, pH = 9, 10 min) was 1.79 Log10 and the “YM Log10” value ([1]; steeped barley, pH = 10.0, 5 s) was 3.52 Log10. For the same compound, the “YM Log10 Reduction” value ([1]; steeped barley, pH = 10.0, 5 s) was 0.24 Log10, the “YM Log10” value [1, 12] was 3.16 Log10 and the “YM Log10 Reduction” value [1, 12] was 0.60 Log10. For the same compound, the “YM Log10” value [1, 13] was 2.95 Log10, the “YM Log10 Reduction” value [1, 13] was 1.53 Log10 and the “YM Log10” value [1, 14] was 0.00 Log10. For the same compound, the “YM Log10 Reduction” value [1, 14] was 4.48 Log10, the Germination ([2]; pH 3.1, 30 s, germination 2 days) was 100% and the Germination ([2]; pH 3.1, 5 min, germination 2 days) was 100%. It also gave a Germination ([2]; pH 3.1, 10 min, germination 2 days) of 94%, a Germination ([2]; pH 3.1, 30 min, germination 2 days) of 73% and a Germination ([2]; pH 9.0, 30 s, germination 2 days) of 100%. For the same compound, the Germination ([2]; pH 9.0, 5 min, germination 2 days) was 100%, the Germination ([2]; pH 9.0, 10 min, germination 2 days) was 100% and the Germination ([2]; pH 9.0, 30 min, germination 2 days) was 99%. For the same compound, the Germination ([2]; pH 9.0, longer treatment times (10 min and 30 min)) was ~100%, the “effect on germination” value ([2]; short treatment times (0.5-5 min)) was “practically did not affect the germination” and the “effect on germination” value ([2]; unadjusted (acidic) solution, longer treatment times (10 min and especially 30 min)) was “suppressed germination”. The “APC Log10” value [3, 15] was 7.22 Log10, the “APC Log10 Reduction” value [3, 15] was 1.47 Log10 and the “APC Log10” value [3, 16] was 3.78 Log10. The “APC Log10 Reduction” value [3, 16] was 2.59 Log10, the “APC Log10” value [3, 6] was 7.86 Log10 and the “APC Log10 Reduction” value [3, 6] was 0.83 Log10. For the same compound, the “APC Log10” value [3, 17] was 5.14 Log10, the “APC Log10 Reduction” value [3, 17] was 1.23 Log10 and the “APC Log10 (CFU/10 g barley grains)” value [3, 8] was 7.23 Log10. For the same compound, the “APC Log10 Reduction” value [3, 8] was 1.98 Log10, the “APC Log10 (CFU/10 g barley grains)” value [3, 9] was 8.01 Log10 and the “APC Log10 Reduction” value [3, 9] was 1.20 Log10. For the same compound, the “APC Log10 (CFU/10 g barley grains)” value [3, 10] was 6.99 Log10, the “APC Log10 Reduction” value [3, 10] was 2.16 Log10 and the “APC Log10” value ([3]; steeped barley, pH = 6.5, 5 s) was 7.34 Log10. The “APC Log10 Reduction” value ([3]; steeped barley, pH = 6.5, 5 s) was 1.73 Log10, the “APC Log10” value ([3]; steeped barley, pH = 6.5, 30 s) was 6.51 Log10 and the “APC Log10 Reduction” value ([3]; steeped barley, pH = 6.5, 30 s) was 2.56 Log10. For the same compound, the “APC Log10” value ([3]; steeped barley, pH = 9, 5 s) was 7.97 Log10 and the “APC Log10 Reduction” value ([3]; steeped barley, pH = 9, 5 s) was 0.51 Log10.
